{"source": "patent US6417159B1", "about": "(Queen's University at Kingston, priority 1996, dated 2002)", "molecules": {"B1": {"name": "125I-Y-R3 (R3 peptide with N-terminal tyrosine, radio-iodinated) (peptide)", "peptide": "Y(125I)LDALLAALRRIQR", "notes": "Used at 0.5 uM in cross-linking with EDC/NHS; also called tyrosinated peptide analogue of R3; iodinated probe for the intracellular domain of p75NTR"}, "B2": {"name": "R3 affinity matrix peptide (R3 with six residues added to the N-terminus, coupled to Aminolink agarose) (peptide)", "peptide": "KAYIAFLDALLAALRRIQR", "modifications": "also: coupled at pH 7.0 to Aminolink agarose", "notes": "Immobilised on agarose beads in the assay"}}, "key": {"[1]": {"tested_on": "ED8 chick DRG neurons", "assay": "NGF-mediated neurite growth by ED8 chick DRG sensory neurons", "format": "cell-based", "details": "for % of Control Response DRG: (peptide with NGF − NGF alone)/(R3 with NGF − NGF alone) ×100, scored at 43, 44 and 48 hours, M ± SEM, n = 3 assays; for Reduction (loss) of biological effect relative to R3 on enhancement of NGF-mediated neurite growth: DRG cells, 40-50 hours in vitro; for Neurite growth in control wells: 16-20 hours"}, "[2]": {"molecular_target": "T1, p65 subunit of NFkB (Rattus norvegicus, UniProt Q7TQN4)", "T1 construct": "endogenous in cells; host or cells: PC12 (soluble cell extract)", "T1 sequence (Q7TQN4 whole entry)": "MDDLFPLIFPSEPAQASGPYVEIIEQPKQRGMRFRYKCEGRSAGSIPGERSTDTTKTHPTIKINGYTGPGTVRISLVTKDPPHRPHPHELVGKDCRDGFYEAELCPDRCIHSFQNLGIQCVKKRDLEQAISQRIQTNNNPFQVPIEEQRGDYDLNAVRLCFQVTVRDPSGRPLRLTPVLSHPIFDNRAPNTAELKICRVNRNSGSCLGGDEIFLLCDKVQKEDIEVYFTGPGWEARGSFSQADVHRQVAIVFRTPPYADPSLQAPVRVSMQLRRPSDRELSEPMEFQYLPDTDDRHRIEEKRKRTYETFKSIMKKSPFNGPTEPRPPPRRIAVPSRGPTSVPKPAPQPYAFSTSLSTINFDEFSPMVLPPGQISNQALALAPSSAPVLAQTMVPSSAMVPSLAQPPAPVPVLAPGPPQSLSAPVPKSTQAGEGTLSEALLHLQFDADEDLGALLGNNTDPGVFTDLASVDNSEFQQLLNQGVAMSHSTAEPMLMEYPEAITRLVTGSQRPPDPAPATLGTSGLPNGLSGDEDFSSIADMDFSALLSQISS", "assay": "Chemical cross-linking of 125I-Y-R3 to 65 kDa species in PC12 soluble extract, displacement by unlabeled peptide", "format": "binding", "details": "for Displacement of radiolabel from 65 kDa band: 0.5 μM 125I-Y-R3, 150-fold molar excess of unlabeled peptide, densitometric scanning", "protocol": "Y-R3 (5 μg) was labeled with 1 mCi of Na^125I (Amersham) using iodobeads (Pierce) in 50 mM sodium phosphate buffer, as described in Part A. ^125I-Y-R3 (0.5 μM) was incubated with PC12 cell extract (prepared as above) or affinity purified proteins at pH 7.0, with and without a 150-fold molar excess of competing unlabeled peptide for 2 hrs at 4° C. At that time, EDC (Pierce) and NHS (Pierce) were added to a final concentration of 2 mM each and the reaction allowed to proceed for 30 min at room temperature. The reaction was quenched by adding Tris-HCl to a final concentration of 50 mM. An aliquot was removed and mixed with 4 volumes of SDS sample buffer for SDS-PAGE and the remainder subjected to immunoprecipitation.\nCell extract or R3 affinity purified material was incubated for 4 hrs at 4° C. with 5 μl of agarose conjugated goat anti-NFkB p65 (Santa Cruz). The gel was washed at 4° C. with 5×1 ml of HKR containing 1% NP40, followed by a final wash without detergent. SDS reducing sample buffer was added to the gel and the samples were heated at 95° C. for 5 minutes prior to electrophoresis as described above.\nTo examine the structural specificity of the interaction of R3 peptide with the 65 kDa species, PC12 cell soluble extract was chemically cross-linked with 0.5 μM ^125I-Y-R3 in the absence and presence of a 150-fold molar excess of unlabeled R9 or R10. […] The reaction mixtures were separated by SDS-PAGE, followed by autoradiography."}, "[3]": {"tested_on": "PC12 cells", "format": "cell-based, rat", "protocol": "Labeling of all tyrosinated peptides for uptake studies were carried out using IODO-BEADS™ (Pierce). Briefly, 5 μg of the desired peptide was iodinated at pH 7.4, at room temperature, and separated from free iodide by selective elution from a C-18 SEP PAK LIGHT™ (Waters-Millipore) in 80% CH3CN, 1.0% trifluoroacetic acid. The solvent was removed at room temperature under a stream of nitrogen. Specific activity of labeled peptide was 50-65 cpm-pg^−1.\nStock solutions of [^125I]-labeled peptides (final concentration […], specific activity 50-800 cpm·pmol^−1) were prepared in RPMI medium with 10% fetal calf serum. Uptake was initiated by adding the peptide to the cell suspension in RPMI 1640 with 10% fetal calf serum, maintained at 37° C. Cell-associated label was determined by counting the cell pellet obtained by microcentrifuging an aliquot (100 μl containing 1-3×10^5 cells) of the cell suspension through a layer of silicone oil. The silicone oil was 3:1 mixture of dibutyl phthalate:dinonyl phthalate (Fluke Chemie, Switzerland) with a density of 1.027 (Drevon et al., 1977).\nThe uptake versus were corrected for “adsorption” of peptides to the cell surface at zero time. This was assessed by determining label that remained associated with cells removed immediately after the addition of [^125I]-peptide and washed by 2 cycles of centrifugation at […] for 5 minutes and resuspension in peptide-free tissue culture medium. At the indicated times, cold chase values were obtained by removing an aliquot (500 μl) of the cell suspension for centrifugation at 150×g for 5 minutes, followed by resuspension in its initial volume of RPMI+10% fetal calf serum containing 50 μM (10×original) unlabeled peptide. The cell suspension was then returned at 37° C. for a further 30 minutes. At the end of this time, cell-associated label was determined as above."}, "[4]": {"tested_on": "PC12 cells", "assay": "NGF-mediated neurite growth by PC12 cells", "format": "cell-based, rat", "details": "PC12 cells, peptide co-incubated with NGF", "protocol": "PC12 cells or PC12^nnr5 cells (Loeb et al., 1991) were seeded on poly-D-lysine-coated (0.1 mg·ml^−1, overnight) 96-well microculture dishes (Falcon) at approximately 800 cells per well with RPMI with 10% fetal calf serum. Peptides were added to replicate wells 48 hours before, or at the time of, addition of NGF. NGF was prepared by the method of Mobley et al. (1976) and used at 1-2 nM. Other additives were diluted at least 100-fold and added to the wells as described. At various times following incubation at 37° C., 5% CO2, wells were scored for neurite-bearing cells by serial counting of representative circumferences of each well.\nA Leitz Diavert inverted microscope with phase optics was used to score neurite growth. For both PC12 cells and sensory neurons, a neurite was scored as such if its calibre from origin to terminal was approximately the same and the length was equal to or greater than 1.5 cell body diameters."}, "[5]": {"tested_on": "c-fos mRNA", "details": "one-hour exposure"}, "[6]": {"tested_on": "PC12 cells", "assay": "Cytotoxicity in PC12 cultures", "details": "concentration of 50 μM"}, "[7]": {"molecular_target": "T2, p65 subunit of transcription factor NFkB from PC12 cell soluble extract (rat, UniProt Q7TQN4 1-550)", "T2 construct": "also called NFkB p65; 65 kDa species", "T2 sequence (Q7TQN4 whole entry)": "as above", "assay": "chemical cross-linking (EDC/NHS) of 125I-Y-R3 to PC12 soluble extract, SDS-PAGE, autoradiography", "protocol": "(§1) At that time, EDC (Pierce) and NHS (Pierce) were added to a final concentration of 2 mM each and the reaction allowed to proceed for 30 min at room temperature. The reaction was quenched by adding Tris-HCl to a final concentration of 50 mM. An aliquot was removed and mixed with 4 volumes of SDS sample buffer for SDS-PAGE and the remainder subjected to immunoprecipitation."}, "[8]": {"molecular_target": "T2, p65 subunit of transcription factor …", "assay": "affinity chromatography of PC12 soluble extract on R3 matrix, SDS-PAGE, silver stain", "protocol": "PC12 cells were harvested and washed by 3 cycles of resuspension and centrifugation in Ca^2+, Mg^2+-free Gey's Balanced Salt Solution (CMF). […] The column was then washed with 10 bed volumes of homogenizing buffer and 10 bed volumes of detergent-free homogenizing buffer. The bound material was then eluted with 0.5 mg/ml R3 peptide. The eluate was dialyzed (3500 cut off) extensively against 10 mM sodium phosphate pH 7.4 and taken to dryness under reduced pressure on a Speed Vac (Savant).\nA soluble extract of PC12 cells was applied to the R3 affinity resin. […] A similar profile was obtained when extracts from \"primed\" (exposed to 100 ng/ml NGF for 10 days) PC12 cells, PC12^nnr5 cells or ED9 chick brain were used."}, "[9]": {"molecular_target": "T2, p65 subunit of transcription factor …", "assay": "competition of unlabeled R3 against 125I-Y-R3 cross-linking to the 65 kDa protein", "protocol": "as §1\nThe p65 subunit of NFkB was detected in PC12 soluble extracts and in the R3-affinity purified material (FIG. 9A). This 65 kDa protein could also be specifically cross-linked to the iodinated probe for the intracellular domain of P75^NTR, the interaction being displaced by a 150-fold molar excess of unlabeled peptide, and the complex immunoprecipitated by antibodies to the transcription factor (FIGS. 9B and […])."}, "[10]": {"details": "10 μM peptide in solution, no additive to culture medium"}, "[11]": {"details": "time course of association with PC12 cells"}}, "note": "Where “and” joins values, the source holds several entries; their conditions need not be identical. Equal values may be shown once. Read-outs that look alike come from different tables or passages of the source. Where no end group is shown, it is not given here. The star is where a group is joined. 125I = [125I]*", "data": [{"molecule": "LDALLAALRAIQR [R9]", "values": [{"measurement": "% of Control Response DRG", "setting": "[1]", "value": "61 ± 1^(5) %"}, {"measurement": "Reduction (loss) of biological effect relative to R3 on enhancement of NGF-mediated neurite growth", "setting": "[1]", "value": "approximately 40%"}, {"measurement": "Activity relative to R3 in influencing NGF-mediated neurite growth", "setting": "[1]; in vitro", "value": "50-60% and 61%"}, {"measurement": "Displacement of radiolabel from 65 kDa band", "setting": "[2]", "value": 76, "unit": "%"}]}, {"molecule": "LDALLAALRRRQR [R10]", "values": [{"measurement": "% of Control Response DRG", "setting": "[1]", "value": "29 ± 4^(5) %"}, {"measurement": "Reduction (loss) of biological effect relative to R3 on enhancement of NGF-mediated neurite growth", "setting": "[1]", "value": "approximately 70%"}, {"measurement": "Displacement of radiolabel from 65 kDa band", "setting": "[2]", "value": 43, "unit": "%"}]}, {"molecule": "R4: hybrid: R3 linked via its amino terminus to an 11-amino acid peptide homologue of the inner transmembrane domain of p75^NTR (Sequence ID No. 7) (VVVGLVAYIAFLDALLAALRRIQR)", "values": [{"measurement": "Cell association resistant to chase (uptake), in words", "setting": "[3]", "value": "did not suggest an uptake process"}, {"measurement": "Time at half-maximal uptake", "setting": "[3]; [10]", "value": 0, "unit": "min"}, {"measurement": "Effect on NGF-mediated neurite growth, co-incubation, in words", "setting": "[4]", "value": "did not enhance NGF-mediated neurite growth"}]}, {"molecule": "Y-R3: tyrosinated peptide analogue of R3, N-terminal tyrosine (Sequence ID No. 6); radio-iodinated for uptake and cross-linking (YLDALLAALRRIQR; also: radio-iodinated)", "values": [{"measurement": "Uptake at full saturation", "setting": "[3]", "value": 20, "unit": "pmol/10^6 cells"}, {"measurement": "Time at half-maximal uptake", "setting": "[3]; [10]", "value": 30, "unit": "min"}, {"measurement": "Time at half-maximal uptake", "setting": "[3]; 10 μM peptide, MgCl2 (10 mM) added to culture medium", "value": 30, "unit": "min"}, {"measurement": "Time for which label remained resistant to chase by excess unlabeled R3", "setting": "[3]; cold chase", "value": "up to 50 hours"}, {"measurement": "Time at which uptake was half-maximally saturated", "setting": "[3]; [11]", "value": 30, "unit": "min"}, {"measurement": "Time to full saturation of uptake", "setting": "[3]; [11]", "value": "10 to 20", "unit": "h"}, {"measurement": "Interaction with 65 kDa species by chemical cross-linking, in words", "setting": "[2]; soluble PC12 extract", "value": "interacted specifically"}]}, {"molecule": "mastoparan [MP]", "values": [{"measurement": "Effect on NGF-mediated neurite growth, co-incubation, in words", "setting": "[4]", "value": "did not significantly influence"}, {"measurement": "Effect on NGF-mediated c-fos mRNA induction, in words", "setting": "[5]", "value": "stimulatory effect"}, {"measurement": "Cytotoxicity, in words", "setting": "[6]", "value": "cytotoxic"}]}, {"molecule": "nerve growth factor [NGF]", "values": [{"measurement": "Neurite growth in control wells", "setting": "[1]; NGF 0.04 pM alone", "value": "5.5±2.1"}, {"measurement": "Neurite growth in control wells", "setting": "[1]; NGF 0.4 pM alone", "value": "14.0±6.1"}, {"measurement": "Neurite growth in control wells", "setting": "[1]; NGF 4 pM alone", "value": "31.7±8.7"}, {"measurement": "Neurite growth in control wells", "setting": "[1]; NGF 40 pM alone", "value": "44.8±8.6"}]}, {"molecule": "B1", "values": [{"measurement": "binding result", "setting": "[7]", "value": "binds"}]}, {"molecule": "B2", "values": [{"measurement": "binding result", "setting": "[8]", "value": "binds"}]}, {"molecule": "LDALLAALRRIQR (also called peptide R3; unlabeled R3)", "note": "[R3 peptide (synthetic peptide identical to rat p75NTR 367-379)]", "values": [{"measurement": "binding result", "setting": "[9]", "value": "binds"}]}]}
